Measurements from paper PMC7754409 (Journal of Clinical Pharmacology, 2020).
Read-outs that look alike come from different tables or passages of the source.

Experiments:
[1] = format: in vivo, human; details: for AUC(0-inf): human, plasma, AUCinf, GM (CV%), total AUCinf; for distribution of exposure (AUCinf, Cmax) across Child-Pugh classifications: subjects with normal NCIc, box plots Figures 2A, 3
[2] = cited from earlier work
[3] = any degree of HI based on Child-Pugh
[4] = Child-Pugh mild and moderate HI

| Compound | AUC(0-inf) ([1]; Child-Pugh mild HI group) [ng·h/mL] | AUC(0-inf) ([1]; Child-Pugh moderate HI group) [ng·h/mL] | AUC(0-inf) ([1]; NCIc mild group) [ng·h/mL] | AUC(0-inf) ([1]; NCIc moderate group) [ng·h/mL] | AUC(0-inf) ([1]; NCIc normal group) [ng·h/mL] | distribution of exposure (AUCinf, Cmax) across Child-Pugh classifications [1] | effect of HI on axitinib exposure (Cmax and AUCinf) versus normal ([2]; Child-Pugh mild HI) | higher AUCinf (exposure) compared with normal ([2]; Child-Pugh moderate HI) [fold] | higher AUCinf compared with normal NCIc hepatic function ([1]; NCIc mild HI) [%] | AUC(0-inf) ([1]; Child-Pugh severe HI group) [ng·h/mL] | AUC(0-inf) ([1]; NCIc severe group) [ng·h/mL] | AUCinf in Child-Pugh mild HI compared with Child-Pugh normal ([1]; within subjects with normal NCI hepatic function) [fold] | higher exposure compared with normal hepatic function [2, 3] [fold] | plasma elimination half-life compared with normal hepatic function [2, 3] | exposure (AUCinf and Cmax) of mild and moderate groups compared with normal hepatic function ([1]; based on either classification system (Child-Pugh or NCIc)) | effect of HI on dacomitinib exposure versus normal [2, 4] | unbound AUCinf of mild group compared with normal hepatic function ([1]; via either classification (Child-Pugh or NCIc)) | mean fraction unbound in plasma ([2]; across Child-Pugh hepatic function groups) | effect of HI on sunitinib exposure (AUCinf and Cmax) versus normal [2, 4] |
| --- | --- | --- | --- | --- | --- | --- | --- | --- | --- | --- | --- | --- | --- | --- | --- | --- | --- | --- | --- |
| CNC(=O)c1ccccc1Sc1ccc2c(/C=C/c3ccccn3)n[nH]c2c1 [Axitinib, axitinib] | 122 | 304 | 210 | 410 | 137 | appeared similar | did not affect | 2 | – | – | – | – | – | – | – | – | – | – | – |
| COc1cc(Nc2c(C#N)cnc3cc(OCCCN4CCN(C)CC4)c(OC)cc23)c(Cl)cc1Cl [Bosutinib, bosutinib] | 1940 | 1730 | 1580 | 1860 | 1130 | higher exposure | – | – | 40 | 1660 | 1350 | ~2 | ~2 | longer | – | – | – | – | – |
| COc1cc2ncnc(Nc3ccc(F)c(Cl)c3)c2cc1NC(=O)/C=C/CN1CCCCC1 [Dacomitinib, dacomitinib] | 811 | 682 | 753 | 583 | 800 | – | – | – | – | – | 685 | – | – | – | similar | did not alter | – | – | – |
| CC(=O)c1c(C)c2cnc(Nc3ccc(N4CCNCC4)cn3)nc2n(C2CCCC2)c1=O [Palbociclib, palbociclib] | – | – | – | – | – | – | – | – | – | – | – | – | – | – | – | – | overall similar | increased with worsening hepatic function | – |
| CCN(CC)CCNC(=O)c1c(C)[nH]c(/C=C2\C(=O)Nc3ccc(F)cc32)c1C [Sunitinib, sunitinib] | 1510 | 1480 | 1690 | 1530 | 1340 | – | – | – | – | – | – | – | – | – | – | – | – | – | did not alter |
